Source: patent US8278265B2, “Methods, kits and compositions comprising crotamine” (Fundacao de Amparo a Pesquisa do Estado de Sao Paulo—FAPESP, priority 2005, dated 2012)

What was measured:
[1] = test system: linear and/or circular double strand DNA; experiment: DNA-peptide interaction by agarose gel electrophoresis (gel shift assay); format: binding; details: various molar proportions, FIG. 6
Procedure: The interaction between crotamine and DNA was analysed by an interference assay for DNA migration in agarose gel. 1 μg DNA and an increasing concentration of crotamine was added in a total volume of 25 μl, containing 150 mM NaCl. Twenty minutes after the mixture was prepared, samples were analysed by agarose gel electrophoresis (1%), using Tris-borate-EDTA buffer, followed by visualization by staining the nucleic acid with the ethidium bromide.
The formation of the complex between the peptide and DNA was analysed by the electrophoretic mobility of the complex in agarose gel (1%, w/v) by varying the molar proportions between the peptide and the double-strand DNA. Tests were made by mixing plasmid DNA (2 or 4 μg) with 10 μg of pure crotamine, in the presence or absence of 150 mM NaCl, which were applied on agarose gel immersed in Tris borate-EDTA buffer. DNA was then observed after staining with ethidium bromide and using UV light transiluminator. Gel documentation after electrophoresis was made by using an image digitizer (model FLA3000). This system of electrophoresis allows to observe changes in the migration pattern (migration delay) due to the neutralization of nucleic acid by cationic peptide present and/or due to the formation of larger complexes between crotamine and DNA (FIG. 6). […]

[2] = test system: human limfoblastoids, B16 murine melanoma cells, HCT116 colon cancer cells, human mesenchymal stem cells from bone marrow and dental pulp; experiment: In vitro transfection with crotamine-DNA aggregates; format: cell-based
B16F10 cells = experiment: Tumor treatment with natural crotamine; format: in vivo, Balb/c mouse
Procedure: The cells were maintained in Dulbecco's modified Eagle's cell culture medium (DMEM; Invitrogen, Carlsbad, Calif.) supplemented with 15% fetal calf serum (FCS; Invitrogen). The cells were kept at 37° C. with humidity and 5% CO2. After preparing a cell suspension with about 5×10^6 cells/ml of PBS [phosphate buffered solution], approximately 0.2 ml of this suspension was subcutaneously or endovenously (retroorbital injection) injected into each Balb/c mouse, of 4 to 6 weeks-old with body weight between 16 to 20 g. For negative control, the animals were injected with 0.2 ml of PBS. Before setting up the experiments, the animals were kept under 12 hour light-dark cycle, and were allowed to have water and food ad libitum. All animals were caged and handled under ethical conditions according to international rules of animal care, stated by the International Animal Welfare Recommendations, and in accordance with the Guidelines for the Use of Animals in Biochemical Research
30 minutes after endogenous injection of B16F10 cells, as described above, the animals were treated with 1 μg of crotamine/animal by daily subcutaneous injection, during 21 days.

[3] = test system: embryonic stem cells (ES) of mice; experiment: Embriotoxicity assay: cytotoxic effects on embryonic stem cells; format: cell-based; details: submicromolar concentrations, between 10^−6 and 10^−7 M; five days
Procedure: Bearing in mind that crotamine is a toxin, cytotoxic effects were tested on embryonic stem cells (ES) of mice which are non-differentiated cells, derived from the embryonic bud of blastocytes, and have as their main characteristic their pluripotence, an ability to differentiate to different types of tissues.
Such cells were chosen bearing in mind the usefulness of crotamine application for gene therapy (by means of stem cells) and transgenesis, as a carrier of other molecules to within cells. Four different concentrations were tested for five days. […] The assay was as follows.
Embryonic bodies (EBs) were obtained by the hanging drop method, as described above, using culture medium containing crotamine at various concentrations (100 μM to 0.1 μM), changing the medium every two to three days. To analyze the crotamine location in EBs under development, crotamine was substituted with crotamine linked to Cy3 (Cy3-crotamine) during the final 24 hours of incubation. Compact murine morulae (8-16 cells) were obtained from the oviduct and cultivated for 24 hours at 37° C. in 5% CO2, in individual microwells of V-bottom plates (Costar) with […] microwells in M16 medium (supplier: Sigma) and Cy3-crotamine (1-0.1 μM). After 24 hours of culture, normally developed blastocyst numbers were compared within the control and the experimental group.

chromosomes = experiment: Chromosome analysis; format: cell-based; details: 1 μM, compared with DAPI or 5-BrDU staining
Procedure: 1 μM crotamine conjugated to Cy3 was added to the culture of ES-USP1 cells, human lymphoblastoids and primary fibroblasts for 1, 3, 6 and 24 hours. Cells were collected and treated according to the routine cytogenetic protocol, with no addition of colchicine. Digital images were obtained with refrigerated CCD (PCO, VC44) and processed by using ISIS software (MetaSystem).

[4] = test system: Murine pluripotent embryonic stem cells; experiment: In vitro incorporation of Cy3-crotamine in pluripotent embryonic stem cells; format: cell-based; details: FIG. 2D and E
Procedure: Embrionary stem cells (ES) from mice, line USP-1 (Soukoyan, M. A., Kerkis, A. Y., Mello, M. R. B., Kerkis, I. E., Visintin, J. A., Pereira, L. V. (2002), Establishment of New Murine Embryonic Stem Cell Lines for the Generation of Mouse Models of Human Genetic Diseases, Braz. J. Med. Biol. Res. 35, 535-542) in the passage 8-10 were cultured on a layer of γ-irradiated embrionary fibroblasts of mice, kept in DMEM (Gibco, U.S.A.), supplemented with 15% FCS (Gibco, U.S.A.), 1 mM sodium piruvate, 1% non-essential amino acids, 0.1 mM β-mercaptoethanol and 1×103 U/ml murine Leukemia Inhibitor Factor (LIF) (ESGRO-LIF, Gibco). Human lymphoblastoids and primary fibroblasts were cultivated in DMEM and in RPMI, respectively, supplemented with 10% FCS with no antibiotics. Cultures were kept under humid atmosphere at 37° C. and 5% CO2.
In vitro assay: Semiconffluent cultures of pluripotent and differentiation ES cells (homogeneous cell population), as well as other cell cultures of normal and tumor origin, were kept in small laminar slides placed in 24-well plates containing appropriate culture medium. Cells were incubated for 2-3 minutes to 72 hours in the presence of Cy3-crotamine, under concentrations between 10 μM and 0.01 μM, or as control, just in the presence of the dye agent Cy3 diluted in 1 ml PBS (control). […]

YKQCHKKGGHCFPKEKICLPPSSDFGKMDCRWRWK CCKKGSG (YKQCHKKGGHCFPKEKICLPPSSDFGKMDCRWRWKCCKKGSG; UniProt Q9PWF3 23-64, looked up) [crotamine]
effect of complex formation on electrophoretic mobility in agarose gel [1]: interfere in the electrophoretic mobility | result of in vitro transfection [2]: positive results | tumor positive animals, 18th day (B16F10 cells; 1 μg/animal daily s.c., day 18): 3 | tumor positive animals, 20th day (B16F10 cells; 1 μg/animal daily s.c., day 20): 2 | Total positive animals up to 21th day (B16F10 cells; 1 μg/animal daily s.c., days 10-21): 5 posit. | effect on tumor formation compared to the control group (B16F10 cells; 1 μg/animal daily subcutaneous injection, 21 days): delay or even inhibited the tumor formation | tumor positive animals, 25th day (B16F10 cells; observation after end of treatment, day 25): 9 | tumor positive animals, 29th day (B16F10 cells; observation after end of treatment, day 29): 9 | tumor positive animals, 35th day (B16F10 cells; observation after end of treatment, day 35): 12 | tumor positive animals, 48th day (B16F10 cells; observation after end of treatment, day 48): 12 | ratio of positives (B16F10 cells; up to day 21): 0.33 | cytotoxic effect on embryonic stem cells in culture [3]: does not present any cytotoxic effect | binding to chromosomes (chromosomes): binds to chromosomes in the metaphase | signal on cell islets of pluripotent embryonic stem cells [4]: strong signal
